Test results: ChEMBL document CHEMBL5608216, “Discovery of a novel Xanthone derivative P24 for anti-AD via targeting sTGFBR3” (Eur J Med Chem, 2024)
Active and inactive are the calls of the source. The calls are words filed in the database; no cut-off is given here.

Assays:
BV-2 [1] = test: Antiinflammatory activity in LPS-induced mouse BV-2 cells assessed as inhibition of NO production incubated for 24 hrs by Griess reagent based analysis; format: functional, cell-based; conditions: BV-2, 24 h
[2] = Cytotoxicity against LPS-induced mouse BV-2 cells assessed as survival rate at 10 uM measured after 24 hrs by MTT assay relative to control; format: toxicity, cell-based; conditions: LPS-induced BV-2 cells, read-out: Survival
[3] = Permeability of compound measured after 18 hrs by UV spectrophotometer based PAMPA; format: ADME
BV-2 [4] = test: Activation of TGF-beta pathway in APP/PS1/tau mouse brain extract-induced mouse BV-2 cells assessed as increase in phosphorylated SMAD2/3 protein level by immunoblot analysis; format: cell-based; conditions: filed as activator
[5] = target: T1, Transforming growth factor beta receptor type 3 (Mus musculus) (UniProt O88393); test: Binding affinity to sTGFBR3 in APP/PS1/tau mouse brain extract-induced mouse BV-2 cells at 37 to 77 degreeC measured after 3 hrs by CETSA; format: cell-based
T1 sequence (whole entry): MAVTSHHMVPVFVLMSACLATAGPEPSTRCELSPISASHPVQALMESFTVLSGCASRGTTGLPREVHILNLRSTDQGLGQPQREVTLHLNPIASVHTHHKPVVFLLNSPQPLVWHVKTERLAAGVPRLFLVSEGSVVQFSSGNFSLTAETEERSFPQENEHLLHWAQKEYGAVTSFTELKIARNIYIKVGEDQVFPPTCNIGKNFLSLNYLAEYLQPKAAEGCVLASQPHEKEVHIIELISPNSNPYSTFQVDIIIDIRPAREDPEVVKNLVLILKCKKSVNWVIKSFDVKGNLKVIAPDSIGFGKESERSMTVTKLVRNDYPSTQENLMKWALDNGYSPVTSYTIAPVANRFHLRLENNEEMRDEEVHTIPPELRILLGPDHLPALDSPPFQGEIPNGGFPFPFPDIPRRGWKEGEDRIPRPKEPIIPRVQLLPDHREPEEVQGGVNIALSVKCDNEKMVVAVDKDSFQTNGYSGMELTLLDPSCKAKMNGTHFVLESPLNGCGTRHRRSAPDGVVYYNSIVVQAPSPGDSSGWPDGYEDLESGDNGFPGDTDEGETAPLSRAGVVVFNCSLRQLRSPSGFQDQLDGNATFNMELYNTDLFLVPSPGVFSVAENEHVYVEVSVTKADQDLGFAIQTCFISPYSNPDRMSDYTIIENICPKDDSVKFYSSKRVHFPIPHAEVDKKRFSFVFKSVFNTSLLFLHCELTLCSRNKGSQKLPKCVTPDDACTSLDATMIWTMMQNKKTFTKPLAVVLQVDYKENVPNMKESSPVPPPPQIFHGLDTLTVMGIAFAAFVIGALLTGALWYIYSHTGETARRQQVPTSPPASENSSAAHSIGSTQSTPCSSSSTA

BV-2 [6] = test: Inhibition of NF-kappaB activation in APP/PS1/tau triple transgenic mouse brain extract-induced mouse BV-2 cells assessed as reduction in IKK complex formation by immunoblot analysis; format: cell-based; conditions: dose 1.25-10 µM
BV-2 [7] = test: Activation of TGF-beta pathway in APP/PS1/tau triple transgenic mouse brain extract-induced mouse BV-2 cells assessed as increase in phosphorylated SMAD2/3 protein expression by immunoblot analysis; format: cell-based; conditions: filed as activator, dose 1.25-10 µM
BV-2 [8] = test: Inhibition of NF-kappaB activation in APP/PS1/tau triple transgenic mouse brain extract-induced mouse BV-2 cells assessed as inhibition of phosphorylated IKBalpha protein expression by immunoblot analysis; format: cell-based; conditions: dose 1.25-10 µM
BV-2 [9] = test: Inhibition of NF-kappaB activation in APP/PS1/tau triple transgenic mouse brain extract-induced mouse BV-2 cells assessed as inhibition of phosphorylated p65 protein expression by immunoblot analysis; format: cell-based; conditions: dose 1.25-10 µM
BV-2 [10] = test: Antiinflammatory activity in APP/PS1/tau triple transgenic mouse brain extract-induced mouse BV-2 cells assessed as reduction in IL-1beta expression by immunoblot analysis; format: functional, cell-based; conditions: dose 1.25-10 µM
BV-2 [11] = test: Antiinflammatory activity in APP/PS1/tau triple transgenic mouse brain extract-induced mouse BV-2 cells assessed as reduction in TNFalpha expression by immunoblot analysis; format: functional, cell-based; conditions: dose 1.25-10 µM
BV-2 [12] = test: Antiinflammatory activity in APP/PS1/tau triple transgenic mouse brain extract-induced mouse BV-2 cells assessed as increase in IL-4 expression by immunoblot analysis; format: functional, cell-based; conditions: dose 1.25-10 µM
BV-2 [13] = test: Antiinflammatory activity in APP/PS1/tau triple transgenic mouse brain extract-induced mouse BV-2 cells assessed as increase in IL-10 expression by immunoblot analysis; format: functional, cell-based; conditions: dose 1.25-10 µM
BV-2 [14] = test: Antiinflammatory activity in APP/PS1/tau triple transgenic mouse brain extract-induced mouse BV-2 cells assessed as reduction in CD86 expression by immunoblot analysis; format: functional, cell-based; conditions: dose 1.25-10 µM
BV-2 [15] = test: Antiinflammatory activity in APP/PS1/tau triple transgenic mouse brain extract-induced mouse BV-2 cells assessed as increase in CD206 expression by immunoblot analysis; format: functional, cell-based; conditions: dose 1.25-10 µM
BV-2 [16] = test: Enhancement of amyloid beta phagocytosis in APP/PS1/tau triple transgenic mouse brain extract-induced mouse BV-2 cells assessed as increase in fluorescence intensity pretreated for 1 hr followed by brain extract treatment and measured after 24 hrs by Thioflavin T staining based assay; format: functional, cell-based; conditions: dose 1.25-10 µM, time 25.0 hrs
[17] = Toxicity in C57BL/6 mouse assessed as mortality at 2000 mg/kg, po measured after 3 to 24 hrs; format: organism-based; conditions: in vivo, time 3-24 hrs
[18] = Cmax in Sprague-Dawley rat at 50 mg/kg, po administered as single dose and measured upto 48 hrs; format: ADME, organism-based; conditions: in vivo
[19] = AUC (0 to t) in Sprague-Dawley rat at 50 mg/kg, po administered as single dose and measured upto 48 hrs; format: ADME, organism-based; conditions: in vivo
[20] = Elimination half life in Sprague-Dawley rat at 50 mg/kg, po administered as single dose and measured upto 48 hrs; format: ADME, organism-based; conditions: in vivo, read-out: beta t1/2 (converted)
[21] = Tmax in Sprague-Dawley rat at 50 mg/kg, po administered as single dose and measured upto 48 hrs; format: ADME, organism-based; conditions: in vivo
[22] = MRT (0 to infinity) in Sprague-Dawley rat at 50 mg/kg, po administered as single dose and measured upto 48 hrs; format: ADME, organism-based; conditions: in vivo

SMILES	IC50 (BV-2 [1]) [µM]	viability at 24 h, 10 µM [2] [%]	also measured
O=C(COc1ccc2c(=O)c3ccccc3oc2c1)NCc1ccccn1	2.43	69.1	
CCn1cc(C(=O)O)c(=O)c2cc(F)c(N3CCNCC3)nc21 [ENOXACIN]			permeability [3]: 43.26%
O=C(COc1ccc2c(=O)c3ccccc3oc2c1)NCc1ccncc1	6.38	102	
CN1CCN(C(=O)COc2ccc3c(=O)c4ccccc4oc3c2)CC1	2.25	91.6	
O=c1c2ccccc2oc2ccccc12 [XANTHONE]	21.2	95.4	
O=C(COc1ccc2c(=O)c3ccccc3oc2c1)Nc1ccncc1	2.79	108	
Cc1ccc(CCNC(=O)COc2ccc3c(=O)c4ccccc4oc3c2)cc1	3.42	47.9	
O=C(COc1ccc2c(=O)c3ccccc3oc2c1)Nc1ccccn1	> 30	87.4	
O=C(COc1ccc2c(=O)c3ccccc3oc2c1)NCc1ccccc1	2.41	79	
C[C@]12CCC(=O)C=C1CC[C@@H]1[C@@H]2CC[C@]2(C)C(=O)CC[C@@H]12 [ANDROSTENEDIONE]			permeability [3]: 87.28%
O=C(COc1ccc2c(=O)c3ccccc3oc2c1)N1CCOCC1	2.49	108	Activity (BV-2 [4]): Active; Activity ([5]; filed as antagonist): Active
O=C(COc1ccc2c(=O)c3ccccc3oc2c1)NCCc1ccc(Cl)cc1	1.53	38.5	
O=C(COc1ccc2c(=O)c3ccccc3oc2c1)NCC1CCOCC1	0.52	105	inhibition (BV-2 [6]): Dose-Dependent Effect; Activity (BV-2 [4]): Active; Activity ([5]; filed as antagonist): Active; permeability [3]: 79.33%; Activity (BV-2 [7]): Dose-Dependent Effect; inhibition (BV-2 [8]): Dose-Dependent Effect; inhibition (BV-2 [9]): Dose-Dependent Effect; Activity (BV-2 [10]): Dose-Dependent Effect; Activity (BV-2 [11]): Dose-Dependent Effect; Activity (BV-2 [12]): Dose-Dependent Effect; Activity (BV-2 [13]): Dose-Dependent Effect; Activity (BV-2 [14]): Dose-Dependent Effect; Activity (BV-2 [15]): Dose-Dependent Effect; Activity (BV-2 [16]): Dose-Dependent Effect; Activity [17]: Non-Toxic; Cmax [18]: 304 ng/mL; AUCt [19]: 4738.426 ng·h/mL; half-life [20]: 10.3 h; Tmax [21]: 12 h; MRT inf [22]: 14.5 h
O=C(COc1ccc2c(=O)c3ccccc3oc2c1)NC[C@@H](O)c1ccccc1	12.5	100	
O=C(COc1ccc2c(=O)c3ccccc3oc2c1)NCCc1ccccc1	2.57	96.4	
COc1ccc(CCNC(=O)COc2ccc3c(=O)c4ccccc4oc3c2)cc1	0.86	54.4	
O=C(COc1ccc2c(=O)c3ccccc3oc2c1)NCCc1ccc(Cl)c(Cl)c1	3.28	41.1	
O=C(COc1ccc2c(=O)c3ccccc3oc2c1)N1CCNCC1	2.15	101	Activity (BV-2 [4]): Active; Activity [5]: inactive
O=C(COc1ccc2c(=O)c3ccccc3oc2c1)NCc1cccnc1	16	75.4	
O=C(COc1ccc2c(=O)c3ccccc3oc2c1)NCc1ccc(F)cc1	2.02	82.8	
O=C(COc1ccc2c(=O)c3ccccc3oc2c1)NCc1ccc(Cl)cc1	1.23	40.4	
O=C(COc1ccc2c(=O)c3ccccc3oc2c1)NCc1ccc(Cl)c(Cl)c1	2.89	54.6	
CN1CCN(c2ccc(NC(=O)COc3ccc4c(=O)c5ccccc5oc4c3)nc2)CC1	1.19	86	
CCC(NC(=O)COc1ccc2c(=O)c3ccccc3oc2c1)c1ccccn1 (stereo not given)	5.43	98.5	
O=C(COc1ccc2c(=O)c3ccccc3oc2c1)N(Cc1ccccc1)Cc1ccccc1	6.38	99.7	
O=C(COc1ccc2c(=O)c3ccccc3oc2c1)Nc1cccnc1	1.92	91.9	
O=C(COc1ccc2c(=O)c3ccccc3oc2c1)NCc1ccccc1F	1.72	84.6	
O=C(COc1ccc2c(=O)c3ccccc3oc2c1)NC1CCOCC1	3.9	80.6	
O=C(COc1ccc2c(=O)c3ccccc3oc2c1)NCc1cccc(F)c1	> 30	97.2	
